In US20230026616A1, “PYRIMIDOIMIDAZOLE COMPOUNDS USED AS DNA-PK INHIBITORS” (MEDSHINE DISCOVERY INC., priority 2019, published 2023):
Read-outs that look alike come from different tables or passages of the source. Marks after values point to notes of the source that are not given here. Values belong to the compound of their own block, whether it stands above or below them.

Tests used:
[1] = Pharmacokinetic and brain exposure evaluation in rats; assay type: in vivo, SD male rats; details: for Vd: read-out: Vdss
Excerpt: IV: intravenous injection; PO: oral; C0: instantaneous […] concentration after intravenous injection; Cmax: highest plasma concentration after administration; Tmax: time required to reach peak of drug concentration after administration; T1/2: time required for the plasma drug concentration to decrease by half, Vdss: apparent volume of distribution, refers to the proportional constant of the drug dose in vivo and the blood drug concentration when the drug reaches a dynamic equilibrium in vivo. Cl: clearance rate, refers to the […] cleared from the body per unit time; Tlast: time at the last detection point; AUC0-last: area under the drug-time curve, refers to the area covered by the plasma concentration curve and the time axis; F: a measure of the speed and degree of drug absorption into the blood circulation, which is an important indicator for evaluating the degree of drug absorption.
Test compounds were mixed with 10% dimethyl sulfoxide/50% polyethylene glycol 200/40% water, vortexed and sonicated to prepare a nearly clear solution of 0.5 mg/mL (compound 5) or 1 mg/mL (compound 17), then filtered through a microporous membrane for next step. SD male rats were selected and administered intravenously with the candidate compound solution at a dose of 1 mg/kg (compound 5) or 2 mg/kg (compound 17). Test compounds were mixed with 10% dimethyl sulfoxide/50% polyethylene glycol 200/40% water, vortexed and sonicated to prepare a homogeneous suspension of 4 mg/mL (compound 5) or a nearly clear solution of 1 mg/mL (compound 17). SD male rats were selected and orally administered with the candidate compound solution at a dose of 40 mg/kg (compound 5) or 10 mg/kg (compound 17). Whole blood, cerebrospinal fluid, brain tissue were collected for a certain period of time and plasma was prepared, and the drug concentration was detected by LC-MS/MS method, and the pharmacokinetic parameters were calculated by Phoenix WinNonlin software (Pharsight, USA).

[2] = system: human non-small cell lung cancer NCI-H1703 cell subcutaneous xenograft tumor; assay: In vivo pharmacodynamics, NCI-H1703 subcutaneous xenograft tumor model; design: species or system BALB/c nude mice; details: for Tumor volume (Day 0): Day 0 (baseline), Mean ± SEM; for Tumor volume (Day 21): Day 21, Mean ± SEM; for T/Cweight: day 21; for Tumor weight (PG-D21): day 21, Mean ± SEM
Procedure: Experimental purpose: To study the in vivo pharmacodynamics of the test compounds in BALB/c nude mice model with human non-small cell lung cancer NCI-H1703 cell subcutaneous xenograft tumor
Experimental animals: Female BALB/c nude mice, 6-8 weeks old, weighing 18-22 grams; supplier: Shanghai Sippe-Bk Lab Animal Co., Ltd.
Human non-small cell lung cancer NCI-H1703 cells were cultured in vitro in RPMI1640 medium with 10% fetal bovine serum, 100 U/mL penicillin and 100 μg/mL streptomycin at 37° C. in a 5% CO2 incubator. Conventional digestion with trypsin-EDTA was performed twice a week for passage. When the cell saturation was 80%-90% and the number reached the requirement, the cells were collected, counted, and seeded.
0.2 mL (5×10^6 cells) NCI-H1703 cells (added with matrigel, volume ratio of 1:1) were subcutaneously inoculated into the right back of each mouse, and the group administration started when the average tumor volume reached about 130 mm^3.
Compound 5 was prepared into 3 mg/mL, 6 mg/mL, 9 mg/mL suspension solutions, and compound 17 was prepared into 9 mg/mL suspensions, and the solvent was 0.5% HPMC+1% Tween 80.
Tumor diameters were measured with vernier calipers twice a week. The calculation formula of tumor volume is: V=0.5a×b^2, wherein a and b represent the long and short diameters of the tumor, respectively.
The antitumor efficacy of the compounds was evaluated by TGI (%) or relative tumor proliferation rate T/C (%). Relative tumor proliferation rate T/C (%)=TRTV/CRTV×100% (TRTV: means RTV in the treatment group; CRTV: means RTV in the negative control group). The relative tumor volume (RTV) was calculated according to the results of tumor measurement. The calculation formula is RTV=Vt/V0, wherein V0 is the tumor volume measured at the time of group administration (i.e., day 0), and Vt is the tumor volume at one measurement. Data of the same day was taken for TRTV and CRTV.
TGI (%), reflecting tumor growth inhibition rate. TGI (%)=[1−(average tumor volume at the end of administration of a certain treatment group-average tumor volume at the beginning of administration of this treatment group)/(average tumor volume at the end of treatment in the solvent control group-average volume at the beginning of treatment in the solvent control group tumor volume)]×100%. After the experiment, the tumor weight was detected, and the T/weight percentage was calculated. T weight and C weight represent the tumor weight of the administration group and the solvent control group, respectively.
Statistical analysis was performed using SPSS software based on RTV data at the end of the experiment. […] T-test was used to analyze the comparison between two groups, and one-way ANOVA was used to analyze the comparison between three or more groups. If the variance was homogeneous (F value had no significant difference), Tukey's method was used for analysis. If the variance was not homogeneous (F value had significant difference), the Games-Howell method was used to test. p<0.05 was considered a significant difference.

[3] = male, SD, 1 mg/kg, rat plasma, IV 1 mpk
[4] = male, SD, 40 mg/kg, rat, PO 40 mpk, Cerebrospinal fluid
[5] = male, SD, 40 mg/kg, rat, PO 40 mpk, Plasma
[6] = male, SD, 2 mg/kg, rat plasma, IV 2 mpk
[7] = male, SD, 10 mg/kg, rat plasma, PO 10 mpk

AUC(0-t) [1, 3]: 2.38 µM·h | C0 [1, 3]: 3.04 µM | clearance [1, 3]: 17 mL/min/kg | half-life [1, 3]: 1.45 h | Vd [1, 3]: 1.41 L/kg | Tmax ([1]; male, SD, 40 mg/kg, rat, PO 40 mpk, Brain tissue): 4 h | AUC(0-t) [1, 4]: 7.74 µM·h | Tmax [1, 4]: 2 h | Cmax ([1]; male, SD, 40 mg/kg, rat, PO 40 mpk, Cerebrospinal fluid, read-out: Cmax): 1.26 µM | AUC(0-t) [1, 5]: 59.9 µM·h | Tmax [1, 5]: 2 h | Cmax ([1]; male, SD, 40 mg/kg, rat, PO 40 mpk, Plasma, read-out: Cmax): 10.2 µM | Tlast ([1]; rat plasma, IV 1 mpk): 8 h | AUC0-last ([1]; rat, PO 40 mpk, Brain tissue): 6369^b h*nmol/kg | Cmax ([1]; rat, PO 40 mpk, Brain tissue): 1019^a nmol/kg | Tlast ([1]; rat, PO 40 mpk, Brain tissue): 8 h | Tlast ([1]; rat, PO 40 mpk, Cerebrospinal fluid): 8 h | Tlast ([1]; rat, PO 40 mpk, Plasma): 8 h
Compound: Cc1cc2ncnn2cc1Nc1ncc2c(n1)n(N1CC3CCC(C1)O3)c(=O)n2C [Compound 5]
Tumor volume (Day 0) ([2]; 30 mg/kg twice a day): 131 ± 10 mm^3 | RTV (Day 21) ([2]; 30 mg/kg twice a day): 7.57 ± 0.53 | T/C (%) (Day 21) ([2]; 30 mg/kg twice a day): 79.3% | TGI (%) (Day 21) ([2]; 30 mg/kg twice a day): 20.6% | Tumor volume (Day 21) ([2]; 30 mg/kg twice a day): 979 ± 86 mm^3 | tumor inhibitory effect compared with the blank control (in words) ([2]; 30 mg/kg, administered twice a day): certain tumor inhibitory effect | T/Cweight ([2]; 30 mg/kg): 79.6% | Tumor weight (PG-D21) ([2]; 30 mg/kg): 1.031 ± 0.095 g | Tumor volume (Day 0) ([2]; 60 mg/kg twice a day): 131 ± 10 mm^3 | RTV (Day 21) ([2]; 60 mg/kg twice a day): 3.31 ± 0.51 | T/C (%) (Day 21) ([2]; 60 mg/kg twice a day): 34.7% | TGI (%) (Day 21) ([2]; 60 mg/kg twice a day): 72.3% | Tumor volume (Day 21) ([2]; 60 mg/kg twice a day): 427 ± 64 mm^3 | T/Cweight ([2]; 60 mg/kg): 36.0% | Tumor weight (PG-D21) ([2]; 60 mg/kg): 0.467 ± 0.078 g | tumor inhibitory effect compared with the blank control (in words) ([2]; 60 mg/kg, dosed twice a day): significant tumor inhibitory effect | Tumor volume (Day 0) ([2]; 90 mg/kg twice a day): 130 ± 10 mm^3 | RTV (Day 21) ([2]; 90 mg/kg twice a day): 2.64 ± 0.45 | T/C (%) (Day 21) ([2]; 90 mg/kg twice a day): 27.7% | TGI (%) (Day 21) ([2]; 90 mg/kg twice a day): 79.4% | Tumor volume (Day 21) ([2]; 90 mg/kg twice a day): 351 ± 64 mm^3 | T/Cweight ([2]; 90 mg/kg): 29.2% | Tumor weight (PG-D21) ([2]; 90 mg/kg): 0.379 ± 0.069 g | tumor inhibitory effect compared with the blank control (in words) ([2]; 90 mg/kg, dosed twice a day): significant tumor inhibitory effect | dose dependence of the therapeutic effect ([2]; 30, 60, 90 mg/kg twice a day): dose-dependent

AUC(0-t) [1, 6]: 4.86 µM·h | C0 [1, 6]: 5.3 µM | clearance [1, 6]: 16.9 mL/min/kg | half-life [1, 6]: 1.16 h | Vd [1, 6]: 1.4 L/kg | AUC(0-t) [1, 7]: 32.5 µM·h | Tmax [1, 7]: 2 h | half-life [1, 7]: 2.29 h | Cmax ([1]; male, SD, 10 mg/kg, rat plasma, PO 10 mpk, read-out: Cmax): 6.25 µM | Tlast ([1]; rat plasma, IV 2 mpk): 8 h | Tlast ([1]; rat plasma, PO 10 mpk): 8 h
Compound: Cc1cc2nncn2cc1Nc1ncc2c(n1)n(N1CC3CCC(C1)O3)c(=O)n2C [Compound 17]
Tumor volume (Day 0) ([2]; 90 mg/kg twice a day): 130 ± 13 mm^3 | RTV (Day 21) ([2]; 90 mg/kg twice a day): 3.19 ± 0.46 | T/C (%) (Day 21) ([2]; 90 mg/kg twice a day): 33.4% | TGI (%) (Day 21) ([2]; 90 mg/kg twice a day): 71.6% | Tumor volume (Day 21) ([2]; 90 mg/kg twice a day): 435 ± 94 mm^3 | T/Cweight ([2]; 90 mg/kg): 35.9% | Tumor weight (PG-D21) ([2]; 90 mg/kg): 0.466 ± 0.103 g | tumor inhibitory effect compared with the blank control (in words) ([2]; 90 mg/kg, dosed twice a day): significant tumor inhibitory effect
